Our source for the IC50 values is patent US8236951B2, “Thioxanthine derivatives as myeloperoxidase inhibitors” (AstraZeneca AB, priority 2002, dated 2012).

One may read the IC50 as the concentration that inhibits the measured activity by half. A high value points to lower potency.

In this experiment the target is T1, human MPO (Homo sapiens, UniProt P05164).
T1 sequence (P05164 49-745): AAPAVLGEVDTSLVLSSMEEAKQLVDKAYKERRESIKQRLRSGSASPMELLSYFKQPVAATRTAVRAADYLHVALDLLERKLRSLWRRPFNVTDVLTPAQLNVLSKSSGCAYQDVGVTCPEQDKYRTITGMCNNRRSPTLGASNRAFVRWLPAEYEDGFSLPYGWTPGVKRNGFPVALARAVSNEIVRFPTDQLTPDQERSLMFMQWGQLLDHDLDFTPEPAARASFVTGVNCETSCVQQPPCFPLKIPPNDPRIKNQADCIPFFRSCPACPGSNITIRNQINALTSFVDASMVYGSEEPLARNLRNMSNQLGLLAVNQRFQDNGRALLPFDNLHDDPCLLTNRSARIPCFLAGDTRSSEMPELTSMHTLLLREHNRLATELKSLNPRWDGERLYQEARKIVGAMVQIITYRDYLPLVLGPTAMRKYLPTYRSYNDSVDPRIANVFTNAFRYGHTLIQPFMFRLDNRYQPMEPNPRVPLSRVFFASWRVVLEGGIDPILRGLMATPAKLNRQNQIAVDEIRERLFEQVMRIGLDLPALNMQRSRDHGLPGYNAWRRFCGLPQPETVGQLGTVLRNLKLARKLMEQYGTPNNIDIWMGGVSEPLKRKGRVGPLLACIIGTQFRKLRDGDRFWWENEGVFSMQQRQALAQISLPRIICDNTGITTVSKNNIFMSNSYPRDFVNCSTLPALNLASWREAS
Put plainly: MPO inhibition screen (TMB oxidation, absorbance at about 650 nM). It is filed as biochemical. The conditions noted are these: human MPO 2.5 nM, H2O2 100 μM, assay buffer pH 6.5, room temperature. As for the experimental part:
The pharmacological activity of compounds according to the invention was tested in the following screen:
Assay buffer: 20 mM sodium/potassium phosphate buffer pH 6.5 containing 10 mM taurine and 100 mM NaCl.
Then 50 μl of H202 (final concentration 100 μM), or assay buffer alone as a control, were added for 10 minutes at room temperature. […] IC50 values were then determined using standard procedures.
Molecule `COCCn1c(=S)[nH]c(=O)c2[nH]cnc21` [Example 15, 3-(2-Methoxy-ethyl)-2-thioxanthine] registered an IC50 of 0.44 µM.
With `O=c1[nH]c(=S)n(CC2CCCO2)c2nc[nH]c12` (racemic) [Example 14, 3-(2-Tetrahydrofuryl-methyl)-2-thioxanthine] the figure was 0.51 µM; with `O=c1[nH]c(=S)n(Cc2ccco2)c2nc[nH]c12` [Example 17, 3-(2-Furyl-methyl)-2-thioxanthine], 7.57 µM.
With `O=c1[nH]c(=S)n(CC2CCCCC2)c2nc[nH]c12` [Example 10, 3-Cyclohexylmethyl-2-thioxanthine], the IC50 was determined as 0.53 µM.
With `CC(C)Cn1c(=S)[nH]c(=O)c2[nH]cnc21` [Example 6, 3-Isobutyl-2-thioxanthine] the figure was 0.87 µM; with `O=c1[nH]c(=S)n(CCCN2CCOCC2)c2nc[nH]c12` [Example 16, 3-(3-(1-Morpholinyl)-propyl)-2-thioxanthine], 2.94 µM; with `O=c1[nH]c(=S)n(CCc2ccccc2)c2nc[nH]c12` [Example 20, 3-Phenethyl-2-thioxanthine], 0.96 µM.
Under `COc1ccc(Cn2c(=S)[nH]c(=O)c3[nH]cnc32)cc1` [Example 18, 3-(4-Methoxybenzyl)-2-thioxanthine] stands 0.49 µM.
